{
  "source": "patent US20110086836A1",
  "about": "“Substituted Phenylpiperidine Derivatives As Melanocortin-4 Receptor Modulators” (Santhera Pharmaceuticals (Schweiz) AG, priority 2006, published 2011)",
  "key": {"[1]": {"molecular_target": "T1, human melanocortin-4 receptor (hMC-4R) (Homo sapiens, UniProt P32245)", "T1 construct": "expressed in transfected cells; host or cells: HEK293 (membrane preparations)", "T1 sequence (P32245 whole entry)": "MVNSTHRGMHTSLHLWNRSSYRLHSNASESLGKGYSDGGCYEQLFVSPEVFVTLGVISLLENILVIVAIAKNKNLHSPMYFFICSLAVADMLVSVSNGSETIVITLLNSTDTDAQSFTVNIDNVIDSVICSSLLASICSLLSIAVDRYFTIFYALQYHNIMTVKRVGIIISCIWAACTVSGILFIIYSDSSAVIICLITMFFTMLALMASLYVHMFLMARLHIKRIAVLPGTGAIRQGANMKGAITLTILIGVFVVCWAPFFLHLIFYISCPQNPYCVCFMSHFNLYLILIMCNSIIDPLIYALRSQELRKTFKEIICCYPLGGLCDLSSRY", "assay": "hMC-4R functional assay (membrane based cAMP fluorescence polarization)", "type": "biochemical", "set-up": "concentration or dose not given beside the values", "conditions": "cAMP produced compared to stimulation with NDP-alpha-MSH", "method": "Agonistic activity of human melanocortin receptors is determined in a homogeneous membrane based assay.\nMembrane preparations from HEK293 cells expressing the human melanocortin receptors are added. After a short preincubation period, an appropriate amount of ATP, GTP and the cAMP antibody is added and the plate is further incubated before the fluorescence labeled cAMP conjugate is dispensed. The plate is incubated for 2 h at 4° C. before it is read on a fluorescence polarization microplate reader."}, "[2]": {"molecular_target": "T1, human melanocortin-4 receptor (hMC-4R)", "assay": "hMC-4R binding assay (fluorescence polarization, competition with fluorescence labeled NDP-alpha-MSH)", "conditions": "HEK293 cell membrane preparations expressing human melanocortin receptors", "method": "The plate is incubated for 5 h at room temperature.\nThe degree of fluorescence polarization is determined with a fluorescence polarization microplate reader."}},
  "data": [
    {"compound": "O=C(N[C@H](Cc1ccc(Cl)cc1Cl)C(=O)N1CCC(c2ccccc2CCN2CCC(F)CC2)CC1)N1CCCC1", "note": "[Example 36]", "values": [
      {"measurement": "% activation functional assay", "setting": "[1]", "result": 0, "unit": "%"},
      {"measurement": "IC50", "setting": "[2]", "result": 9.6, "unit": "nM"}
    ]},
    {"compound": "O=C(N[C@H](Cc1ccc(Cl)cc1Cl)C(=O)N1CCC(c2ccccc2CCCN2CCCC2)CC1)N1CCOCC1", "note": "[Example 95]", "values": [
      {"measurement": "% activation functional assay", "setting": "[1]", "result": 0, "unit": "%"},
      {"measurement": "IC50", "setting": "[2]", "result": 5.3, "unit": "nM"}
    ]},
    {"compound": "O=C(N[C@H](Cc1ccc(Cl)cc1Cl)C(=O)N1CCC(c2ccccc2OCCN2CCCC2)CC1)N1CCC(F)(F)C1", "note": "[Example 110]", "values": [
      {"measurement": "% activation functional assay", "setting": "[1]", "result": 0, "unit": "%"},
      {"measurement": "IC50", "setting": "[2]", "result": 4.4, "unit": "nM"}
    ]},
    {"compound": "CN(C)[C@H]1CCN(C(=O)N[C@H](Cc2ccc(Cl)cc2Cl)C(=O)N2CCC(c3ccccc3OCCN3CCCC3)CC2)C1", "note": "[Example 113]", "values": [
      {"measurement": "% activation functional assay", "setting": "[1]", "result": 0, "unit": "%"},
      {"measurement": "IC50", "setting": "[2]", "result": 3, "unit": "nM"}
    ]},
    {"compound": "O=C(N[C@H](Cc1ccc(Cl)cc1Cl)C(=O)N1CCC(c2ccccc2OCCN2CCCC2)CC1)N1CCCC1", "note": "[Example 2]", "values": [
      {"measurement": "% activation functional assay", "setting": "[1]", "result": 0, "unit": "%"},
      {"measurement": "IC50", "setting": "[2]", "result": 3.7, "unit": "nM"}
    ]}
  ]
}
